Assay results: PubChem BioAssay AID1963872 (Molecular Pharmacology Branch, DTP, NCI, 2024)

System: KRAS patient-derived spheroids with HUVEC/MSC, viability
Test: Anticancer human tumor 519858-162-T-J1-PDC patient-derived colon adenocarcinoma cell line growth inhibition [KRAS2]
Settings: for viability, T/C: stronger effect = lower value
Method in brief: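 KRAS-mutant tumor cells were grown as spheroids with HUVEC endothelial cells and human MSCs as stroma. Targeted agents were tested alone and with KRAS pathway inhibitors. Doses started at or near clinical Cmax, or 10 microM, descending half-log.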

[1] = curve of first compound, second compound 0.1 µM
[2] = curve of first compound, second compound 0.316 µM
[3] = curve of first compound, second compound 1 µM
[4] = curve of first compound, second compound 3.16 µM
[5] = curve of first compound, second compound 10 µM
[6] = second compound 0.1 µM, first compound 0.0316 µM
[7] = second compound 0.1 µM, first compound 0.1 µM
[8] = second compound 0.1 µM, first compound 0.316 µM
[9] = second compound 0.1 µM, first compound 1 µM
[10] = second compound 0.1 µM, first compound 3.16 µM
[11] = second compound 0.1 µM, first compound 10 µM
[12] = second compound 0.316 µM, first compound 0.0316 µM
[13] = second compound 0.316 µM, first compound 0.1 µM
[14] = second compound 0.316 µM, first compound 0.316 µM
[15] = second compound 0.316 µM, first compound 1 µM
[16] = second compound 0.316 µM, first compound 3.16 µM
[17] = second compound 0.316 µM, first compound 10 µM
[18] = second compound 1 µM, first compound 0.0316 µM
[19] = second compound 1 µM, first compound 0.1 µM
[20] = second compound 1 µM, first compound 0.316 µM
[21] = second compound 1 µM, first compound 1 µM
[22] = second compound 1 µM, first compound 3.16 µM
[23] = second compound 1 µM, first compound 10 µM
[24] = second compound 3.16 µM, first compound 0.0316 µM
[25] = second compound 3.16 µM, first compound 0.1 µM
[26] = second compound 3.16 µM, first compound 0.316 µM
[27] = second compound 3.16 µM, first compound 1 µM
[28] = second compound 3.16 µM, first compound 3.16 µM
[29] = second compound 3.16 µM, first compound 10 µM
[30] = second compound 10 µM, first compound 0.0316 µM
[31] = second compound 10 µM, first compound 0.1 µM
[32] = second compound 10 µM, first compound 0.316 µM
[33] = second compound 10 µM, first compound 1 µM
[34] = second compound 10 µM, first compound 3.16 µM
[35] = second compound 10 µM, first compound 10 µM
[36] = second compound 0.1 µM, first compound 0.000316 µM
[37] = second compound 0.1 µM, first compound 0.001 µM
[38] = second compound 0.1 µM, first compound 0.00316 µM
[39] = second compound 0.1 µM, first compound 0.01 µM
[40] = second compound 0.316 µM, first compound 0.000316 µM
[41] = second compound 0.316 µM, first compound 0.001 µM
[42] = second compound 0.316 µM, first compound 0.00316 µM
[43] = second compound 0.316 µM, first compound 0.01 µM
[44] = second compound 1 µM, first compound 0.000316 µM
[45] = second compound 1 µM, first compound 0.001 µM
[46] = second compound 1 µM, first compound 0.00316 µM
[47] = second compound 1 µM, first compound 0.01 µM
[48] = second compound 3.16 µM, first compound 0.000316 µM
[49] = second compound 3.16 µM, first compound 0.001 µM
[50] = second compound 3.16 µM, first compound 0.00316 µM
[51] = second compound 3.16 µM, first compound 0.01 µM
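Also: compound exposure lasted seven days before readout.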
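For viability, T/C in this document: 100% = DMSO vehicle control viability.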

Cn1nccc1Nc1nccc(-c2cc3c(s2)C(C)(C)N(CCN2CCOCC2)C3=O)n1 + CC1OCC2(CCN(c3cnc(Sc4ccnc(N)c4Cl)c(N)n3)CC2)C1N
IC50 [1]: 3830 nM | IC50 [2]: 1740 nM | IC50 [3]: 341 nM | IC50 [4]: 188 nM | IC50 [5]: 144 nM | viability, T/C [6]: 70.9% | viability, T/C [7]: 71.8% | viability, T/C [8]: 60.6% | viability, T/C [9]: 64.3% | viability, T/C [10]: 54.4% | viability, T/C [11]: 33% | viability, T/C [12]: 66.6% | viability, T/C [13]: 52.6% | viability, T/C [14]: 69.5% | viability, T/C [15]: 62.7% | viability, T/C [16]: 36.2% | viability, T/C [17]: 25.1% | viability, T/C [18]: 50.2% | viability, T/C [19]: 53.7% | viability, T/C [20]: 48.6% | viability, T/C [21]: 41% | viability, T/C [22]: 28.1% | viability, T/C [23]: 30.8% | viability, T/C [24]: 53.6% | viability, T/C [25]: 62.3% | viability, T/C [26]: 41.5% | viability, T/C [27]: 35.6% | viability, T/C [28]: 23.4% | viability, T/C [29]: 28.1% | viability, T/C [30]: 47.5% | viability, T/C [31]: 63.1% | viability, T/C [32]: 38.5% | viability, T/C [33]: 36.8% | viability, T/C [34]: 26.5% | viability, T/C [35]: 34.1%

CCNC(=O)CC1N=C(c2ccc(Cl)cc2)c2cc(OC)ccc2-n2c(C)nnc21 (configuration not stated) + COc1cc2nc(C)nc(NC(C)c3cc(N)cc(C(F)(F)F)c3)c2cc1OC1CCOC1
IC50 [1]: 1410 nM | IC50 [2]: 656 nM | IC50 [3]: 531 nM | IC50 [4]: 367 nM | IC50 [5]: 106 nM | viability, T/C [6]: 82.4% | viability, T/C [7]: 90.9% | viability, T/C [8]: 86.2% | viability, T/C [9]: 67.9% | viability, T/C [10]: 7.95% | viability, T/C [11]: 5.72% | viability, T/C [12]: 78.8% | viability, T/C [13]: 125% | viability, T/C [14]: 78.3% | viability, T/C [15]: 33.1% | viability, T/C [16]: 8.12% | viability, T/C [17]: 9.79% | viability, T/C [18]: 71.1% | viability, T/C [19]: 58.3% | viability, T/C [20]: 66.2% | viability, T/C [21]: 31.5% | viability, T/C [22]: 5.67% | viability, T/C [23]: 7.44% | viability, T/C [24]: 70% | viability, T/C [25]: 90.5% | viability, T/C [26]: 55.4% | viability, T/C [27]: 13.8% | viability, T/C [28]: 6.83% | viability, T/C [29]: 9.55% | viability, T/C [30]: 58% | viability, T/C [31]: 48% | viability, T/C [32]: 33% | viability, T/C [33]: 7.95% | viability, T/C [34]: 6.57% | viability, T/C [35]: 5.25%

CN(C)C/C=C/C(=O)Nc1cc2c(Nc3ccc(F)c(Cl)c3)ncnc2cc1O[C@H]1CCOC1 + CC1OCC2(CCN(c3cnc(Sc4ccnc(N)c4Cl)c(N)n3)CC2)C1N
IC50 [1]: > 100 nM | IC50 [2]: 19.7 nM | IC50 [3]: > 100 nM | IC50 [4]: 4.46 nM | IC50 [5]: 58.2 nM | viability, T/C [36]: 76.6% | viability, T/C [37]: 77.2% | viability, T/C [38]: 68% | viability, T/C [39]: 93.6% | viability, T/C [6]: 70.3% | viability, T/C [7]: 64.3% | viability, T/C [40]: 78.1% | viability, T/C [41]: 75% | viability, T/C [42]: 85.8% | viability, T/C [43]: 53.3% | viability, T/C [12]: 55.1% | viability, T/C [13]: 40.4% | viability, T/C [44]: 74.4% | viability, T/C [45]: 74.1% | viability, T/C [46]: 78.8% | viability, T/C [47]: 71.2% | viability, T/C [18]: 90.8% | viability, T/C [19]: 67.4% | viability, T/C [48]: 53.6% | viability, T/C [49]: 55.6% | viability, T/C [50]: 38.9% | viability, T/C [51]: 59.3% | viability, T/C [24]: 39.4% | viability, T/C [25]: 36.8% | viability, T/C (second compound 10 µM, first compound 0.000316 µM): 80% | viability, T/C (second compound 10 µM, first compound 0.001 µM): 81.7% | viability, T/C (second compound 10 µM, first compound 0.00316 µM): 71.3% | viability, T/C (second compound 10 µM, first compound 0.01 µM): 72.9% | viability, T/C [30]: 53.3% | viability, T/C [31]: 46.4%

Cn1ncnc1[C@H]1c2n[nH]c(=O)c3cc(F)cc(c23)N[C@@H]1c1ccc(F)cc1 + C=CC(=O)N1CCN(c2nc(OCC3CCCN3C)nc3c2CCN(c2cccc4cccc(C)c24)C3)CC1CC#N
IC50 (curve of first compound, second compound 0.0316 µM): > 100 nM | IC50 [1]: > 100 nM | IC50 [2]: > 100 nM | IC50 [3]: > 100 nM | IC50 [4]: > 100 nM | viability, T/C (second compound 0.0316 µM, first compound 0.000316 µM): 84.3% | viability, T/C (second compound 0.0316 µM, first compound 0.001 µM): 88.4% | viability, T/C (second compound 0.0316 µM, first compound 0.00316 µM): 75.1% | viability, T/C (second compound 0.0316 µM, first compound 0.01 µM): 89.1% | viability, T/C (second compound 0.0316 µM, first compound 0.0316 µM): 68.9% | viability, T/C (second compound 0.0316 µM, first compound 0.1 µM): 65.5% | viability, T/C [36]: 62.2% | viability, T/C [37]: 74.2% | viability, T/C [38]: 76.6% | viability, T/C [39]: 70.2% | viability, T/C [6]: 85.9% | viability, T/C [7]: 91.7% | viability, T/C [40]: 66% | viability, T/C [41]: 73.8% | viability, T/C [42]: 74.1% | viability, T/C [43]: 66.3% | viability, T/C [12]: 78.5% | viability, T/C [13]: 76.3% | viability, T/C [44]: 61.3% | viability, T/C [45]: 75.8% | viability, T/C [46]: 59.6% | viability, T/C [47]: 72.3% | viability, T/C [18]: 84.2% | viability, T/C [19]: 72.3% | viability, T/C [48]: 71.7% | viability, T/C [49]: 67.4% | viability, T/C [50]: 62.3% | viability, T/C [51]: 62.3% | viability, T/C [24]: 59.2% | viability, T/C [25]: 58.9%

CC(C)n1nc(-c2ccc3oc(N)nc3c2)c2c(N)ncnc21
viability, T/C (compound 0.001 µM): 97.5% [middle of 5 runs] | IC50 (curve of compound): > 100 nM

CC1(C)CCC(CN2CCN(c3ccc(C(=O)NS(=O)(=O)c4ccc(NCC5CCOCC5)c([N+](=O)[O-])c4)c(Oc4cnc5[nH]ccc5c4)c3)CC2)=C(c2ccc(Cl)cc2)C1 + C=CC(=O)N1CCN(c2nc(=O)n(-c3c(C)ccnc3C(C)C)c3nc(-c4c(O)cccc4F)c(F)cc23)C(C)C1
IC50 [1]: 7910 nM | IC50 [2]: > 10000 nM | IC50 [3]: > 10000 nM | IC50 [4]: > 10000 nM | IC50 [5]: > 10000 nM | viability, T/C [6]: 83.4% | viability, T/C [7]: 102% | viability, T/C [8]: 88% | viability, T/C [9]: 81.2% | viability, T/C [10]: 91.6% | viability, T/C [11]: 39.9% | viability, T/C [12]: 93.9% | viability, T/C [13]: 89.1% | viability, T/C [14]: 68.6% | viability, T/C [15]: 79.4% | viability, T/C [16]: 92.2% | viability, T/C [17]: 61.5% | viability, T/C [18]: 90.9% | viability, T/C [19]: 73.7% | viability, T/C [20]: 94.7% | viability, T/C [21]: 96.6% | viability, T/C [22]: 84.6% | viability, T/C [23]: 65.6% | viability, T/C [24]: 63.3% | viability, T/C [25]: 96.4% | viability, T/C [26]: 81.6% | viability, T/C [27]: 64.1% | viability, T/C [28]: 84.4% | viability, T/C [29]: 61.3% | viability, T/C [30]: 77.8% | viability, T/C [31]: 84.3% | viability, T/C [32]: 58.2% | viability, T/C [33]: 81.9% | viability, T/C [34]: 56.3% | viability, T/C [35]: 70.6%
